Where two headings read alike, the source gives them in different places.
Legend:
[1] = Metabolic stability in human liver microsomes; assay type: in vitro ADME; conditions: for half-life at 1 μM / microsomal CLint at 1 μM: both sexes, human, microsomes, pH 7.4
Procedure: HLM Stability. Pooled HLM from adult male and female donors (Corning 452117) were used. Microsomal incubations were carried out in multi-well plates. Liver microsomal incubation medium consisted of PBS (100 mM, pH 7.4), MgCl2 (1 mM), and NADPH (1 mM), with 0.50 mg of liver microsomal protein per mL. Control incubations were performed by replacing the NADPH-cofactor system with PBS. Test compounds (1 μM, final solvent concentration 1.0%) were incubated with microsomes at 37° C. with constant shaking. Six time points over 60 minutes were analyzed, with 60 μL aliquots of the reaction mixture being drawn at each time point. The reaction aliquots were stopped by adding 180 μL of cold (4° C.) acetonitrile containing 200 ng/mL tolbutamide and 200 ng/ml labetalol as internal standards (IS), followed by shaking for 10 minutes, and then protein sedimentation by centrifugation at 4,000 rpm for 20 minutes at 4° C. Supernatant samples (80 μL) were diluted with water (240 μL) and analyzed for parent compound remaining using a fit-for-purpose liquid chromatography-tandem mass spectrometry (LC-MS/MS) method.
Data Analysis. The elimination constant (kel), half-life (t1/2), and intrinsic clearance (CLint) were determined in a plot of […] versus time, using linear regression analysis.

[2] = tested on: DOPR-induced head twitch response (HTR); assay: Blockade of DOPR-induced head twitch response (HTR) in rats; assay type: in vivo, Sprague-Dawley rats; conditions: for Attenuation of the HTR to DOPR (significance vs. vehicle): all doses tested, SC, Dunnett's multiple comparison test; for Mean HTR (SEM): 10 min before DOPR 0.32 mg/kg SC, HTRs counted for 20 min
Procedure: FIG. 1 graphically depicts in a bar graph the effect of xylamidine pre-treatment on the HTR induced by DOPR in the rat. The indicated doses of xylamidine or vehicle were administered SC. followed 10 minutes later by DOPR (0.32 mg/kg, SC), and HTRs were counted for 20 minutes immediately after DOPR administration (10-30 min after administration of xylamidine). […] In FIG. 2, the effect of BW501C67 pre-treatment on the HTR induced by DOPR in the rat is depicted graphically in a bar graph. […] FIG. 4 graphically depicts in a bar graph the effect of sarpogrelate pre-treatment on the HTR induced by DOPR in the rat.
Animals. Adult male Sprague-Dawley rats aged 8 weeks (body weight ˜270 g) were used in these experiments. Animals were pair housed under controlled temperatures and 12-hour light/dark cycles (lights on between 07:00-19:00 h), with ad libitum food and water. The protocol was approved by the Eurofins Advinus Institutional Animal Care and Use Committee. This study was carried out in strict accordance with the recommendations in the Guide for the Care and Use of Laboratory Animals of the National Institutes of Health. All efforts were made to minimize suffering.
Drugs and Drug Administration. Test compounds were prepared as described above or commercially obtained. Drugs were dissolved in their respective vehicle solutions (see Table 4) and administered subcutaneously (SC) in a volume of 5 mL/kg (except for the experiment with sarpogrelate, where a volume of […] was used). […] The 5-HT2A receptor agonist DOPR was then administered at 1 dose (0.32 mg/kg, SC, in saline, calculated based on the free base) to all animals 10 min after pretreatment with the test peripheral antagonist or vehicle.
Procedure. Rats were administered one dose (0.01 to 100 mg/kg, SC, as indicated) of a test peripheral antagonist (or vehicle) 10 mins prior to administration of DOPR (0.32 mg/kg, SC). After administration of DOPR, rats were immediately placed into a small open field for behavioral observation.
Statistical analysis. The data points shown in Table 4 are the mean±standard error of the mean (SEM). Statistical comparisons were performed between each peripheral antagonist treatment group and its respective vehicle treatment group using Dunnett's multiple comparison test. Analysis was performed using GraphPad Prism 6.

in vivo = assay type: in vivo, rat; conditions: for Peripheral restriction / brain penetration: from free brain:free plasma ratios; for Kp at 0.167 h / Kp at 0.5 h: male, Sprague Dawley, rat, in vivo; for Kp at 0.167 h: read-out: Free Brain:Free Plasma (0.167 h); for Kp at 0.5 h: read-out: Free Brain:Free Plasma (0.5 h)
Procedure: The ratio of free brain concentration to free plasma concentration was calculated at 0.167 h and 0.5 h post administration for each compound using the data presented in the above examples and the following formula.
A smaller value for the free brain: free plasma ratio indicates greater peripheral restriction and therefore, better suitability for the methods of the present disclosure.

[3] = 37° C.
Procedure: Method 1. Pooled frozen rat brain homogenate was thawed in a water bath at 37° C. prior to the experiment. Using an Apricot automation workstation, 98 μL/well of blank brain homogenate or 100 mM PBS were added to all 96-well reaction plates (Blank, T0, T10, T30, T60, and T120). […] All reaction plates containing mixtures of compound and brain homogenate were incubated at 37° C. in a water bath for up to 120 minutes. At the end of incubation, 500 uL of stop solution (200 ng/mL tolbutamide and 200 ng/mL labetalol in ACN) was added to precipitate protein and mixed thoroughly for 20 minutes at 4° C. After centrifugation at 4,000 rpm and 4° C. for 20 minutes, an Apricot automation workstation was used to transfer 150 μL of supernatant from each reaction plate to its corresponding bioanaylsis plate, which was shaken for 10 minutes prior to LC-MS/MS analysis.
Method 2. Rat brain tissue homogenate samples were prepared by diluting one volume of whole rat brain tissue with two volumes of dialysis buffer (phosphate buffered saline pH 7.4-0.1 M sodium phosphate and 0.15 M sodium chloride) to yield 3 times diluted homogenate. Test compounds were spiked into 400 μL aliquots (n=3) of rat brain homogenate and the resulting mixtures were incubated at 37° C. […] An aliquot (100 μL) of each sample was transferred to a 96-well deep plate and analyzed by LC-MS/MS.

5-HT2A receptor = biological target: T1, 5-HT2A receptor (Homo sapiens, UniProt P28223); assay: 5-HT2A radioligand binding with [3H]ketanserin
T1 construct: WuXi AppTec (Hong Kong) Limited (contract laboratory that ran the assay)
Procedure: The binding affinities of key peripheral 5-HT2A receptor antagonists, as well as reference 5-HT2A agonists, at the ketanserin binding site of the 5-HT2A receptor and the mesulergine binding site of the 5-HT2C receptor were determined in radioligand binding experiments.
Method. Affinity of the test compounds for the 5-HT2A and 5-HT2C receptors was determined in radioligand binding experiments with [^3H] ketanserin and [^3H] mesulergine, respectively, by WuXi AppTec (Hong Kong) Limited, using methods adapted from the literature and under conditions described in Table 1.

[4] = HLM, 1 μM, 0.50 mg protein per mL, NADPH
[5] = calculated using 10 mg/kg PK data
[6] = HEK293 stable cell line, 1 nM [3H]ketanserin, 1 h, 25° C., read-out: 5-HT2A Ki (nM) ([3H]ketanserin)
[7] = Method 2: 3 times diluted homogenate

T1 sequence (P28223 whole entry): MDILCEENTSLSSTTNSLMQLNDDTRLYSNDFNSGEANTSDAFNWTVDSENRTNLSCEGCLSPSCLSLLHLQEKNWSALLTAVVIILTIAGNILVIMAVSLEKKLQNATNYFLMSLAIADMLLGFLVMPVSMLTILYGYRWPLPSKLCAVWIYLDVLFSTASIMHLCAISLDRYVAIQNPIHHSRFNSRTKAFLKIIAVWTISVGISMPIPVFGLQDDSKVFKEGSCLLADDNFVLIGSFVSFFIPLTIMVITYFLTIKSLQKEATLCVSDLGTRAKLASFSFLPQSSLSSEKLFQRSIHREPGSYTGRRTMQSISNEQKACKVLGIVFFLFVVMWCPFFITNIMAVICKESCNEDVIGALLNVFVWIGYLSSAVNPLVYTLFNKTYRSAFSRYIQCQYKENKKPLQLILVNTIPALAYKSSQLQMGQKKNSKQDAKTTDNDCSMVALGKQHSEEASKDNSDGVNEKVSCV

SMILES | Metabolic stability in HLM [1] | half-life at 1 μM [1, 4] [min] | microsomal CLint at 1 μM [1, 4] [µL/min/mg] | Attenuation of the HTR to DOPR (significance vs. vehicle) [2] | Mean HTR (SEM) ([2]; antagonist 0.01 mg/kg SC) | Mean HTR (SEM) ([2]; antagonist 0.1 mg/kg SC) | Mean HTR (SEM) ([2]; antagonist 1 mg/kg SC) | Mean HTR (SEM) ([2]; antagonist 10 mg/kg SC) | Peripheral restriction / brain penetration (in vivo) | Kp at 0.167 h (in vivo; calculated using 1 mg/kg data) | Kp at 0.5 h (in vivo; calculated using 1 mg/kg data) | Kp at 0.167 h (in vivo; [5]) | Kp at 0.5 h (in vivo; [5]) | Ki (5-HT2A receptor; [6]) [nM] | % Remaining (120 minutes), rat brain homogenate [3, 7] [%] | further results
CC(CNC(=N)CNc1ccccc1)Oc1cccc(Cl)c1.O=CO (stereo not drawn) [BW501C67, N-(2-(3-chlorophenoxy)propyl)-2-(phenylamino)acetimidamide formate] | poor metabolic stability | 7.2 | 192 | not statistically significant | 5.83 | 2.67 | 5.33 | 4.33 | by far the most peripherally restricted compound | 0.0032 | 0.0052 |  |  |  |  | % Remaining (120 minutes), rat brain homogenate ([3]; Method 1: 1 μM): 110.8%; Ki (5-HT2A receptor): 0.42 nM
CC(C)COc1ccc(CNC(=O)N(Cc2ccc(F)cc2)C2CCN(C(=O)CC[C@H](N)C(=O)O)CC2)cc1 [Compound 14a, (S)-2-amino-5-(4-(1-(4-fluorobenzyl)-3-(4-isobutoxybenzyl)ureido)piperidin-1-yl)-5-oxopentanoic acid] | highly stable | > 145 | < 9.6 | statistically significant attenuation of the HTR | 2.50 | 2.00 | 2.17 | 1.83 | good peripheral restriction | 0 | 0 | 0.048 | 0.035 | 3.83 |  | 
COc1cccc(CCc2ccccc2OCC(CN(C)C)OC(=O)CCC(=O)O)c1 (stereo not drawn) [sarpogrelate] |  |  |  | statistically significant attenuation of the HTR |  |  | 2.33 | 1.33 | substantial brain penetration |  |  | 0.37 | 0.29 |  |  | Mean HTR (SEM) ([2]; antagonist 3 mg/kg SC): 1.83; Mean HTR (SEM) ([2]; antagonist 30 mg/kg SC): 1.33; Mean HTR (SEM) ([2]; antagonist 100 mg/kg SC): 0.33
COc1cccc(C(=O)Nc2ccc(OCCN3CCOCC3)c(-c3ccnn3C)c2)c1 [temanogrel] |  |  |  |  |  |  |  |  | substantial brain penetration |  |  | 0.33 | 0.34 |  | 101 | 
COc1cccc(OC(C)CNC(=N)Cc2cccc(C)c2)c1.O=C(O)C(F)(F)F (stereo not drawn) [xylamidine, N-(2-(3-methoxyphenoxy)propyl)-2-(m-tolyl) acetimidamide trifluoroacetate] | poor metabolic stability |  |  | not statistically significant | 7.33 | 5.00 | 3.17 | 2.83 |  |  |  |  |  | 0.55 | 100 | Clint [1, 4]: 448.6 µL/min/mg; t1/2 [1, 4]: 3.1 min; Free Brain:Free Plasma (0.167 h) (in vivo; calculated using 1 mg/kg data): 0.018; Free Brain:Free Plasma (0.5 h) (in vivo; calculated using 1 mg/kg data): 0.052; Free Brain:Free Plasma (0.167 h) (in vivo; [5]): 0.018; Free Brain:Free Plasma (0.5 h) (in vivo; [5]): 0.018
